Key:
[1] = target: T1, ryanodine receptor 1 (RyR1) (Oryctolagus cuniculus, UniProt P11716); assay: protection from AziPm photolabelling ([…] propofol) in purified RyR1; the IC50 is from [3H]ryanodine binding in wild-type heavy SR vesicles at pCa […] (species not given, assumed)
T1 construct: full-length RyR1 purified from wild-type rabbit skeletal muscle; with FKBP12.6

[2] = target: T2, ryanodine receptor 1 (RyR1) (Homo sapiens, UniProt P21817); assay: Fura-2 Ca2+ imaging, inhibition of Ca2+ release induced by […] ryanodine; assay type: cell-based
T2 construct: wild-type human skeletal myotubes

[3] = target: T1, ryanodine receptor 1 (RyR1); assay: photoaffinity labelling of purified RyR1-FKBP12.[…] with MS; the IC50 is from [3H]ryanodine binding in wild-type heavy SR vesicles at pCa […] (species not given, assumed)

T1 sequence (P11716 whole entry): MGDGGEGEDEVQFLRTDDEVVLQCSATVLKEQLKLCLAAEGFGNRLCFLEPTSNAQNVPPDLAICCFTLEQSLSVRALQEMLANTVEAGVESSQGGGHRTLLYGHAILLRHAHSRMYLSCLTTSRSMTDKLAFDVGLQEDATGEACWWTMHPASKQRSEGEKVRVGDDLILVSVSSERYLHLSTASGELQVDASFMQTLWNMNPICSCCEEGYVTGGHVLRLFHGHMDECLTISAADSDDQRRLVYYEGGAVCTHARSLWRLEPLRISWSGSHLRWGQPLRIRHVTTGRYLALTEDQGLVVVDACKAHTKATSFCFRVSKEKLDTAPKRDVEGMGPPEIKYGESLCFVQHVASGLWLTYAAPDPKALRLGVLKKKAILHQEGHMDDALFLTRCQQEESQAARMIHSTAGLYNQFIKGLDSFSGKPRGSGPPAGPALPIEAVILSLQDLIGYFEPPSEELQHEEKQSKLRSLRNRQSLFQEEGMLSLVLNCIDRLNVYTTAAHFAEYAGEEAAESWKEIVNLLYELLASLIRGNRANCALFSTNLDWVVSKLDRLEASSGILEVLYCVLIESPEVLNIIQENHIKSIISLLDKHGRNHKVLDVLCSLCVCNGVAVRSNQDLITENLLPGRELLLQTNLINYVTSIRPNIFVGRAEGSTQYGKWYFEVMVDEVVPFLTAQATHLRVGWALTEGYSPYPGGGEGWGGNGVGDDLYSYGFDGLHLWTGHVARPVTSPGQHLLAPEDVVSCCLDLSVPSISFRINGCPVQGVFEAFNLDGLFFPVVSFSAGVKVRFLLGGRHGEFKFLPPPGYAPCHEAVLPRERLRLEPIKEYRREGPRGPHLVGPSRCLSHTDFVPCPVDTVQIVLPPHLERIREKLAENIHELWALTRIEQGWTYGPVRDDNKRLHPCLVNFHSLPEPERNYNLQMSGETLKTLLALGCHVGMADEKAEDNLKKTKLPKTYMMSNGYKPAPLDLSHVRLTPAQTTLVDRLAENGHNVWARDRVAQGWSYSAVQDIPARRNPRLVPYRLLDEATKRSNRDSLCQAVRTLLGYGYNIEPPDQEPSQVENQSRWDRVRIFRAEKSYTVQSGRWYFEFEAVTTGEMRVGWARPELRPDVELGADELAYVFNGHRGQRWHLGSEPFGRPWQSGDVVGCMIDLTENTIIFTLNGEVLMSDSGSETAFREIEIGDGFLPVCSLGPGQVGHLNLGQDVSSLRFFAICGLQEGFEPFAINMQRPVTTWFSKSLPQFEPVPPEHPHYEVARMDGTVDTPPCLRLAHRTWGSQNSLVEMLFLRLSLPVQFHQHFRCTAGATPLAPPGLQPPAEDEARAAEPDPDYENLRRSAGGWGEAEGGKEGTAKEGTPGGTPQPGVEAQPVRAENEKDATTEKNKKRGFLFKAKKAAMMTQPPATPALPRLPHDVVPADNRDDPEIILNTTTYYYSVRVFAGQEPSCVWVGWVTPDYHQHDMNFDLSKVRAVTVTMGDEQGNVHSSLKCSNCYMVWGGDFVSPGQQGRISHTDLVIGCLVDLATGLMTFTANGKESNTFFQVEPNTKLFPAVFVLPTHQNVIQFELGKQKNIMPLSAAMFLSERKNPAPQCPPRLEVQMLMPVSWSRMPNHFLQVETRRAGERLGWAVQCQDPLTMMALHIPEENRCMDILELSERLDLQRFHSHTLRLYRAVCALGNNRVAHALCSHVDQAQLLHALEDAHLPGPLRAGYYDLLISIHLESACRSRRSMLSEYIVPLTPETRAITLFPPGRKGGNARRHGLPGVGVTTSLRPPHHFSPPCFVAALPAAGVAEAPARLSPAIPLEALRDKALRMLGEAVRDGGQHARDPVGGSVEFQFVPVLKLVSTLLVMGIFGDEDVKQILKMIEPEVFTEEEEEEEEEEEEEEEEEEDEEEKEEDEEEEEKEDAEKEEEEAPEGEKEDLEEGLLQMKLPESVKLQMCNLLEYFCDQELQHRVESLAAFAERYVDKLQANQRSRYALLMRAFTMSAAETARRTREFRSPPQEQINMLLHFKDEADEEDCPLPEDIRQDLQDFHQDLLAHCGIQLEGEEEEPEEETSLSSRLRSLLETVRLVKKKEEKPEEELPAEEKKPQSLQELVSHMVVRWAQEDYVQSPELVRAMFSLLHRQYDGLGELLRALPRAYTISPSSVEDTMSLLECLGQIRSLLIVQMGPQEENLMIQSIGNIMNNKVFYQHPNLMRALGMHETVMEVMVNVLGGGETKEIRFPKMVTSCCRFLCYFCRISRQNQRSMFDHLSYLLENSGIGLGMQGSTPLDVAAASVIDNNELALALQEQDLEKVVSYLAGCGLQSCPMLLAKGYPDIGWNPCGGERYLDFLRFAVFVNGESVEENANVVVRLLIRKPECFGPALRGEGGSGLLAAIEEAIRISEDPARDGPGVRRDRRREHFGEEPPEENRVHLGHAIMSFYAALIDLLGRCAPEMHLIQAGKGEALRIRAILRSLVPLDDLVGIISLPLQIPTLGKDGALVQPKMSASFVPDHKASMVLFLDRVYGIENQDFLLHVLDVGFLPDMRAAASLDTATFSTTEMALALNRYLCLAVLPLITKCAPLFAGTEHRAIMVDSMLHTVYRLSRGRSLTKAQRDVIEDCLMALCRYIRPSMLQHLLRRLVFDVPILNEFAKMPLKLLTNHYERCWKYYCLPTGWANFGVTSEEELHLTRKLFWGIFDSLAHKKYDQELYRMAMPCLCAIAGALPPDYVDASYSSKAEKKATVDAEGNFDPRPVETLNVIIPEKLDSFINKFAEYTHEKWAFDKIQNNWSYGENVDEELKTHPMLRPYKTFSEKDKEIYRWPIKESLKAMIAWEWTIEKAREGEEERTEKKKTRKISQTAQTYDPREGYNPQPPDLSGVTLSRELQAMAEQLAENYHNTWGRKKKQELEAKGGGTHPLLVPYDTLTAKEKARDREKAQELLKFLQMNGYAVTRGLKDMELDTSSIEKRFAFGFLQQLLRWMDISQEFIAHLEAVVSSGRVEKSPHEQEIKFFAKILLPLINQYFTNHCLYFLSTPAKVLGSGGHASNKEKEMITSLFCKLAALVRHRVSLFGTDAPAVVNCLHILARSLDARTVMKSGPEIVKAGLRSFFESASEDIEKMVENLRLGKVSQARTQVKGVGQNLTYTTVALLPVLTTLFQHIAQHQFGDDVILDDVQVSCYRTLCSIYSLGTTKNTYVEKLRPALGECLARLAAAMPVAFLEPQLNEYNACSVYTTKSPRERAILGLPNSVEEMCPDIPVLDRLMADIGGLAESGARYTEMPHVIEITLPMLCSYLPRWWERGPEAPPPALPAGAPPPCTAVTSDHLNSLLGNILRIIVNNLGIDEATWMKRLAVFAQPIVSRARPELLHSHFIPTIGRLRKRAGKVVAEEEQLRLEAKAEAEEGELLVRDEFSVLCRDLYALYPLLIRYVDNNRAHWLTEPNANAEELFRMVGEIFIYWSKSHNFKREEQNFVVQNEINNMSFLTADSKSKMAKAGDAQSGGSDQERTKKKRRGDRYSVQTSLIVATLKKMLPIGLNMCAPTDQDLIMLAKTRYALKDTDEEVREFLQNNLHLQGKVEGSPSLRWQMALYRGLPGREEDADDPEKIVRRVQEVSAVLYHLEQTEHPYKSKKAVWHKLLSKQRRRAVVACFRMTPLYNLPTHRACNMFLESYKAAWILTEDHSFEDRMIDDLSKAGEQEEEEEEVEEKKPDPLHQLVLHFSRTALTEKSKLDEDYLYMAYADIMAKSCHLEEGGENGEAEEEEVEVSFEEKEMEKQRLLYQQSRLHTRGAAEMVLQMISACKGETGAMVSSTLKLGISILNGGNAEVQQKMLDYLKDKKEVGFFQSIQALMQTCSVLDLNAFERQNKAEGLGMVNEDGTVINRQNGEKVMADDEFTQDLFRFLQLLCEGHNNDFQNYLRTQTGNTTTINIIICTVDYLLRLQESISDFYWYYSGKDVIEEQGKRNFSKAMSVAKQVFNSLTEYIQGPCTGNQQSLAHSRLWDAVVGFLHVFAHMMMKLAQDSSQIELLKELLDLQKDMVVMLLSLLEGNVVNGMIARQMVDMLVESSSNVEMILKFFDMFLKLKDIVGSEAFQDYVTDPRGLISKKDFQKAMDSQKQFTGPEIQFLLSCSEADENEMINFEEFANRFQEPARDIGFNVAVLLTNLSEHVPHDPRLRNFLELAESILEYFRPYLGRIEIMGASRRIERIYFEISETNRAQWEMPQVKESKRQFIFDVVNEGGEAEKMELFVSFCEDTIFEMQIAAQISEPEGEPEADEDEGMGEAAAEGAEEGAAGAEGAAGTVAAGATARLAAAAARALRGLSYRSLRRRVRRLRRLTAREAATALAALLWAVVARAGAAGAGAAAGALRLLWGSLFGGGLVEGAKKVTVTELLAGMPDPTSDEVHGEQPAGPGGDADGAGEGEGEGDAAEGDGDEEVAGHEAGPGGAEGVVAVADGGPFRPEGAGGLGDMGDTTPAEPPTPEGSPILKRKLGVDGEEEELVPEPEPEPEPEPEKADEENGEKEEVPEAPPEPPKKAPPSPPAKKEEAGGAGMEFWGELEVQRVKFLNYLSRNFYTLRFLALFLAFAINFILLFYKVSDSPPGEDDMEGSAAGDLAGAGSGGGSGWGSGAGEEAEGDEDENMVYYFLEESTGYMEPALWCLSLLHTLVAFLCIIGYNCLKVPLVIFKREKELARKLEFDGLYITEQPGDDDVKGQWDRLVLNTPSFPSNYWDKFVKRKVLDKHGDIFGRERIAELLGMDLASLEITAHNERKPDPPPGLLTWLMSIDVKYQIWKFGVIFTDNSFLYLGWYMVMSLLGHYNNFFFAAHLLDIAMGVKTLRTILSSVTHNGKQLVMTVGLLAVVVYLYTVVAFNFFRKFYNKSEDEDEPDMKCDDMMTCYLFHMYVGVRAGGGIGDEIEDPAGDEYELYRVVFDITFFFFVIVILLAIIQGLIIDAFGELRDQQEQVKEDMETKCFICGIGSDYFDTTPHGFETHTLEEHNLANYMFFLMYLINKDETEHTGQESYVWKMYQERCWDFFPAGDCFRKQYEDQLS

Row | Structure (SMILES) | IC50 [1] | IC50 [2] | IC50 [3]
1 | CC(C)c1cccc(C(C)C)c1O [Propofol] | 5.8 µM | 29.5 µM | –
2 | CC(C)c1ccc(C2(C(F)(F)F)N=N2)cc1O [m-azipropofol] | – | – | 6.9 µM

From PMC11488158 (BJA: British Journal of Anaesthesia, 2024)
